Measurements from patent EP4810040A2, “INHIBITORS OF APOL1 AND METHODS OF USING SAME” (priority 2020, dated 2022).

Biological target: T1, APOL1 G1 (Homo sapiens, UniProt O14791, I384M/S342G)
T1 sequence (O14791 28-398 S342G/I384M): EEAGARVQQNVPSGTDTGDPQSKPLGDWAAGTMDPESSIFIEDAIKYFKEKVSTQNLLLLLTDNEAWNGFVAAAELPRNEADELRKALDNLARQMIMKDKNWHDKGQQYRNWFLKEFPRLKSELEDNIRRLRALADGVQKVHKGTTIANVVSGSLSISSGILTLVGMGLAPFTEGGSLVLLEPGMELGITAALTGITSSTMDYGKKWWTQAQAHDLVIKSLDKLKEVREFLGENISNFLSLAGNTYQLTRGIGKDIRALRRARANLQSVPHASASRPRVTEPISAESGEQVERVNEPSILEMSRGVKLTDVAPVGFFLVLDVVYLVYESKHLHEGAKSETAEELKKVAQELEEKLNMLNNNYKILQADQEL
Assay: MultiTox-Fluor Multiplex Cytotoxicity Assay, tet-inducible APOL1 G1 T-REx-HEK293 cells
Assay type: cell-based
Design: expressed in transfected cells; host or cells: T-REx HEK293, clone G1 DC3.25 (pAAVS1-Puro-APOL1 G1)
Conditions: for IC90: HEK293, Multi-Tox Assay, APOL1 variant (G0/G1/G2) of the HEK293 cells not given, read-out: Multi-Tox Assay IC90
Procedure, shortened: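 Over 24 h at 37 °C, compounds (10-point 3-fold series from 10 µM, duplicate) were co-incubated with 50 ng/mL tetracycline inducing APOL1 G1 in T-REx-HEK293 cells. Viability/cytotoxicity measured by MultiTox-Fluor as dead-to-live fluorescence ratio, expressed as percent of control between uninduced and induced wells and fitted.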

[1] = Multi-Tox Assay, APOL1 variant not given

SMILES | IC90 | Emax (Multi-Tox Assay, APOL1 variant not given, read-out: Multi-Tox Assay Max Activity (%)) | Multi-Tox Assay Max Activity (%) [1]
C[C@H]1C[C@@]2(C[C@@H](c3cn(Cc4ccc(CO)cc4)nn3)N1)OC[C@@H](O)c1cc(Cl)sc12 [Compound 224, (2'S,4S,6'S,7S)-2-chloro-2'-[1-[[4-(hydroxymethyl)phenyl]methyl]triazol-4-yl]-6'-methyl-spiro[4,5-dihydrothieno[2,3-c]pyran-7,4'-piperidine]-4-ol] | 50 to 500 nM | 99% | –
C[C@H]1C[C@@]2(C[C@@H](c3cn(Cc4ccc(CO)cc4)nn3)N1)OCC(F)(F)c1cc(Cl)sc12 [Compound 225, (4-((4-((2S,4S,6S)-2'-chloro-4',4'-difluoro-2-methyl-4',5'-dihydrospiro[piperidine-4,7'-thieno[2,3-c]pyran]-6-yl)-1H-1,2,3-triazol-1-yl)methyl)phenyl)methanol] | 50 to 500 nM | – | 97.0%
COCC(O)Cn1cc([C@@H]2C[C@]3(C[C@H](C)N2)OC[C@@H](O)c2cc(Cl)sc23)nn1 (some centres unmarked) [Compound 226] | 50 to 500 nM | – | 100.0%
C[C@H]1C[C@@]2(C[C@@H](c3cn(CC4CCCCO4)nn3)N1)OC[C@@H](O)c1cc(Cl)sc12 (some centres unmarked) [Compound 227] | 50 to 500 nM | – | 100.0%
C[C@H]1C[C@@]2(C[C@@H](c3cn(CCCS(C)(=O)=O)nn3)N1)OC[C@@H](O)c1cc(Cl)sc12 [Compound 228] | 50 to 500 nM | – | 100.0%
COCCOCCn1cc([C@@H]2C[C@]3(C[C@H](C)N2)OC[C@@H](O)c2cc(Cl)sc23)nn1 [Compound 229] | 50 to 500 nM | – | 98.0%
CC(C)C(=O)NCCn1cc([C@@H]2C[C@]3(C[C@H](C)N2)OC[C@@H](O)c2cc(Cl)sc23)nn1 [Compound 230] | > 500 nM | – | 98.0%
C[C@H]1C[C@@]2(C[C@@H](c3cn(Cc4ccccc4S(C)(=O)=O)nn3)N1)OC[C@@H](O)c1cc(Cl)sc12 [Compound 231] | 50 to 500 nM | – | 95.0%
C[C@H]1C[C@@]2(C[C@@H](c3cn(Cc4n[nH]c5ccccc45)nn3)N1)OC[C@@H](O)c1cc(Cl)sc12 [Compound 232] | 50 to 500 nM | – | 100.0%
C[C@H]1C[C@@]2(C[C@@H](c3cn(CC4(O)CC4)nn3)N1)OC[C@@H](O)c1cc(Cl)sc12 [Compound 233] | 50 to 500 nM | – | 100.0%
C[C@H]1C[C@@]2(C[C@@H](c3cn(Cc4ncnc5[nH]ccc45)nn3)N1)OC[C@@H](O)c1cc(Cl)sc12 [Compound 234] | 50 to 500 nM | – | 100.0%
Cc1cc(C)nc(CCn2cc([C@@H]3C[C@]4(C[C@H](C)N3)OC[C@@H](O)c3cc(Cl)sc34)nn2)c1 [Compound 235] | 50 to 500 nM | – | 100.0%
C[C@H]1C[C@@]2(C[C@@H](c3cn(Cc4ccc(C#N)nc4)nn3)N1)OC[C@@H](O)c1cc(Cl)sc12 [Compound 236] | 50 to 500 nM | – | 100.0%
Cc1noc(C)c1Cn1cc([C@@H]2C[C@]3(C[C@H](C)N2)OC[C@@H](O)c2cc(Cl)sc23)nn1 [Compound 237] | 50 to 500 nM | – | –
C[C@H]1C[C@@]2(C[C@@H](c3cn(Cc4ccc(S(C)(=O)=O)cc4)nn3)N1)OC[C@@H](O)c1cc(Cl)sc12 [Compound 238] | 50 to 500 nM | – | 100%
C[C@H]1C[C@@]2(C[C@@H](c3cn(CC(=O)N4CCCCC4)nn3)N1)OC[C@@H](O)c1cc(Cl)sc12 [Compound 239] | 50 to 500 nM | – | 97.0%
C[C@H]1C[C@@]2(C[C@@H](c3cn(CC4(CO)CCOCC4)nn3)N1)OC[C@@H](O)c1cc(Cl)sc12 [Compound 240] | > 500 nM | – | 95.0%
C[C@H]1C[C@@]2(C[C@@H](c3cn(CC4(CO)CC4)nn3)N1)OC[C@@H](O)c1cc(Cl)sc12 [Compound 242] | 50 to 500 nM | – | 97.0%
C[C@H]1C[C@@]2(C[C@@H](c3cn(Cc4cnc5cnccn45)nn3)N1)OC[C@@H](O)c1cc(Cl)sc12 [Compound 243] | 50 to 500 nM | – | 98.0%
C[C@H]1C[C@@]2(C[C@@H](c3cn(CCO)nn3)N1)OC[C@@H](O)c1cc(Cl)sc12 [Compound 244] | 50 to 500 nM | – | 100.0%
COc1ccc(Cn2cc([C@@H]3C[C@]4(C[C@H](C)N3)OC[C@@H](O)c3cc(Cl)sc34)nn2)cc1F [Compound 245] | 50 to 500 nM | – | –
C[C@H]1C[C@@]2(C[C@@H](c3cn(C[C@@H](O)CO)nn3)N1)OC[C@@H](O)c1cc(Cl)sc12 [Compound 246] | 50 to 500 nM | – | 97.0%
C[C@H]1C[C@@]2(C[C@@H](c3cn(CC(C)(C)O)nn3)N1)OC[C@@H](O)c1cc(Cl)sc12 [Compound 247] | > 500 nM | – | 91.0%

SMILES | IC90 | Emax (Multi-Tox Assay, APOL1 variant not given, read-out: Multi-Tox Assay Max Activity (%)) | Multi-Tox Assay Max Activity (%) [1]
C[C@H]1C[C@@]2(C[C@@H](c3cn(Cc4cncs4)nn3)N1)OC[C@@H](O)c1cc(Cl)sc12 [Compound 248] | 50 to 500 nM | – | 101.0%
C[C@H]1C[C@@]2(C[C@@H](c3cn(Cc4ccc5nc(O)[nH]c5c4)nn3)N1)OC[C@@H](O)c1cc(Cl)sc12 [Compound 249] | > 500 nM | – | 92.0%
C[C@H]1C[C@@]2(C[C@@H](c3cn(CC4CCC4)nn3)N1)OC[C@@H](O)c1cc(Cl)sc12 [Compound 250] | 50 to 500 nM | – | 95.0%
Cc1nccn1CCCn1cc([C@@H]2C[C@]3(C[C@H](C)N2)OC[C@@H](O)c2cc(Cl)sc23)nn1 [Compound 251] | 50 to 500 nM | – | –
C[C@H]1C[C@@]2(C[C@@H](c3cn(CCC(C)(C)O)nn3)N1)OC[C@@H](O)c1cc(Cl)sc12 [Compound 252] | 50 to 500 nM | – | 100.0%
C[C@H]1C[C@@]2(C[C@@H](c3cn(Cc4ccc(C#N)cc4)nn3)N1)OC[C@@H](O)c1cc(Cl)sc12 [Compound 253] | 50 to 500 nM | – | 100.0%
C[C@H]1C[C@@]2(C[C@@H](c3cn(CC4CCC(=O)NC4)nn3)N1)OC[C@@H](O)c1cc(Cl)sc12 (some centres unmarked) [Compound 254] | > 500 nM | – | 92.0%
C[C@H]1C[C@@]2(C[C@@H](c3cn(CC#N)nn3)N1)OC[C@@H](O)c1cc(Cl)sc12 [Compound 255] | 50 to 500 nM | – | 100.0%
CC(CO)Cn1cc([C@@H]2C[C@]3(C[C@H](C)N2)OC[C@@H](O)c2cc(Cl)sc23)nn1 (some centres unmarked) [Compound 256] | 50 to 500 nM | – | 96.0%
CCOCCn1cc([C@@H]2C[C@]3(C[C@H](C)N2)OC[C@@H](O)c2cc(Cl)sc23)nn1 [Compound 257] | 50 to 500 nM | – | 101.0%
CNC(=O)C(C)Cn1cc([C@@H]2C[C@]3(C[C@H](C)N2)OC[C@@H](O)c2cc(Cl)sc23)nn1 (some centres unmarked) [Compound 258] | > 500 nM | – | 98.0%
C[C@H]1C[C@@]2(C[C@@H](c3cn(Cc4ccc(O)cc4)nn3)N1)OC[C@@H](O)c1cc(Cl)sc12 [Compound 259] | 50 to 500 nM | – | 100.0%
Cc1cccc(OCC(O)Cn2cc([C@@H]3C[C@]4(C[C@H](C)N3)OC[C@@H](O)c3cc(Cl)sc34)nn2)c1 (some centres unmarked) [Compound 260] | 50 to 500 nM | – | –
Cc1ccccc1C(O)Cn1cc([C@@H]2C[C@]3(C[C@H](C)N2)OC[C@@H](O)c2cc(Cl)sc23)nn1 (some centres unmarked) [Compound 261] | 50 to 500 nM | – | 100.0%
C[C@H]1C[C@@]2(C[C@@H](c3cn(CCc4ccncn4)nn3)N1)OC[C@@H](O)c1cc(Cl)sc12 [Compound 262] | 50 to 500 nM | – | –
COC(=O)Cn1cc([C@@H]2C[C@]3(C[C@H](C)N2)OC[C@@H](O)c2cc(Cl)sc23)nn1 [Compound 263] | > 500 nM | – | 86.0%
CC(CO)CCn1cc([C@@H]2C[C@]3(C[C@H](C)N2)OC[C@@H](O)c2cc(Cl)sc23)nn1 (some centres unmarked) [Compound 264] | 50 to 500 nM | – | 100.0%
C[C@H]1C[C@@]2(C[C@@H](c3cn(CC4CCS(=O)(=O)C4)nn3)N1)OC[C@@H](O)c1cc(Cl)sc12 (some centres unmarked) [Compound 265] | 50 to 500 nM | – | –
C[C@H]1C[C@@]2(C[C@@H](c3cn(Cc4ccc(OC5CCOCC5)cc4)nn3)N1)OC[C@@H](O)c1cc(Cl)sc12 [Compound 266] | 50 to 500 nM | – | 100.0%
C[C@H]1C[C@@]2(C[C@@H](c3cn(CC4CCOCC4)nn3)N1)OC[C@@H](O)c1cc(Cl)sc12 [Compound 267] | 50 to 500 nM | – | –
C[C@H]1C[C@@]2(C[C@@H](c3cn(Cc4cccc5c4OCCO5)nn3)N1)OC[C@@H](O)c1cc(Cl)sc12 [Compound 268] | 50 to 500 nM | – | –
C[C@H]1C[C@@]2(C[C@@H](c3cn(CC4CCOC4)nn3)N1)OC[C@@H](O)c1cc(Cl)sc12 (some centres unmarked) [Compound 269] | 50 to 500 nM | – | –
COCC1(Cn2cc([C@@H]3C[C@]4(C[C@H](C)N3)OC[C@@H](O)c3cc(Cl)sc34)nn2)CC1 [Compound 270] | > 500 nM | – | 93.0%
